# In patent US20120029054A1, “RNA Interference Mediated Inhibition of GATA Binding Protein 3 (GATA3) Gene Expression Using Short Intefering Nucleic Acid (siNA)” (Merck Sharp & Dohme Corp., priority 2009, published 2012):
# Assays:
# Type in all cases: cell-based
# human GAPDH mRNA = assay: GAPDH specificity screen in human MCF7 cells (β-Actin normalised qRT-PCR); conditions: normalised to β-Actin, three experiments, mean ± S.D.
# Description: A series of probes and primers were used to detect the various mRNA transcripts of the genes of β-Actin (human cell line only), and of GATA3 and GAPDH in mouse and human cell lines. All Taqman probes and primers for the experiments here-in described were supplied as pre-validated sets by Applied Biosystems, Inc. (see Table 2).
# The assays were performed on an ABI 7900 instrument, according to the manufacturer's instructions. A TaqMan Gene Expression Master Mix (provided in the Cells-to-CT™, Applied Biosystems, Cat #4399002) was used. The PCR reactions were carried out at 50° C. for 2 min, 95° C. for 20 min followed by 40 cycles at 95° C. for 15 secs and 60° C. for 1 min.
# The expression level of the gene of interest and % knock-down was calculated using Comparative Ct method: […]
# These same three siNAs were tested for specificity in the human MCF7 cell line at 10 nM concentration to determine the effect of the GATA3 siNAs on the mRNA transcript of human GAPDH. In this assay, the samples from the primary screen, discussed above, O-Actin, a ubiquitously expressed ‘house-keeping’ gene, served as an endogenous control for normalization of the data.
# GATA3 mRNA [1] = assay: GATA3 mRNA knock-down (Taqman qRT-PCR) after RNAiMax transfection of human MCF7 cells; screen and IC50 dose response; conditions: for % KD Human: 10 nM siNA, 24 hrs; for % KD GATA3 mRNA at 10 nM: Table 4, MCF7 cells; for % KD GATA3 10 nM: Table 5, MCF7 cells
# Procedure, shortened: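 MCF7 cells (5000/well, 24 h) transfected with siNA–RNAiMax complexes at 10 nM final siNA for 24 h without media change. GATA3 mRNA measured by TaqMan qRT-PCR, alongside β-actin and GAPDH probes. % knock-down by comparative Ct (2^−ΔΔCt) relative to non-targeting control siNA.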
# GATA3 mRNA [2] = assay: GATA3 mRNA knock-down (Taqman qRT-PCR) after RNAiMax transfection of mouse RAG cells; conditions: 10 nM siNA, 24 hrs, average of 2 experiments
# Procedure, shortened: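 Murine RAG cells, 5000/well, transfected 24 h after plating with siNA (10 nM final) complexed with RNAiMax, harvested after 24 h. GATA3 mRNA quantified by TaqMan qRT-PCR with GAPDH reference; % knock-down by comparative Ct (2^−ΔΔCt) versus non-targeting control siNA.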
# [3] = mean ± S.D., * Hs00231122_m1 Taqman Assay
# [4] = mean ± S.D., ** Hs00922328_m1 Taqman Assay
substance,measurement,setting,value
"30263-DC: GATA3 siNA duplex, site 817: sense B cGccucuGcuucAuGGAuc TTB (SEQ 79), antisense GAUccAuGAAGcAGAGGcGUU (SEQ 80) (sense CGCCUCUGCUUCAUGGAUCTT; antisense GAUCCAUGAAGCAGAGGCGUU; chemistry not fully specified)",% KD GAPDH 10 nM,human GAPDH mRNA,11 ± 4%
same,% KD Human,"GATA3 mRNA [1]; MCF7 cells, * Hs00231122_m1 Taqman Assay",74 ± 5* %
same,% KD Human,"GATA3 mRNA [1]; MCF7 cells, ** Hs00922328_m1 Taqman Assay",60 ± 10** %
same,IC50,"GATA3 mRNA [1]; MCF7 cells, mean ± S.D.",0.104 ± 0.041 nM
same,% KD GATA3 mRNA at 10 nM,GATA3 mRNA [1]; [3],74 ± 5* %
same,% KD GATA3 mRNA at 10 nM,GATA3 mRNA [1]; [4],60 ± 10** %
same,% KD GATA3 10 nM,GATA3 mRNA [1]; [3],74 ± 5* %
same,% KD GATA3 10 nM,GATA3 mRNA [1]; [4],60 ± 10** %
same,% KD Mouse,GATA3 mRNA [2],9 ± 13%
